Among the data in publication PMC1373645, “Lactate production yield from engineered yeasts is dependent from the host background, the lactate dehydrogenase source and the lactate export” (Microbial Cell Factories, 2006) are inhibition values, retold here.

The experiment deals with T1, bovine Ldh-A (BtLDH) (Bos taurus, UniProt P19858).
T1 construct: gene LDHA; full length, untagged, expressed in S. cerevisiae GRF18U; crude cell extract; homotetramer
Briefly: LDH activity of crude yeast extract with added lactate (Sigma kit DG1340-UV). Format: biochemical. To be noted: read-out: % inhibition at 10 g/l.

Turning to `C[C@H](O)C(=O)O` [lactate], the inhibition at 10000 µg/mL was ~40%.
